Measured values published in patent publication US4419123A, “Herbicidal 4-trifluoromethyl-3'-carbon-substituted-4'-substituted diphenyl ethers” (Rohm and Haas Company, priority 1981, dated 1983).

Experiments:
rice = assay: Crop tolerance (selective herbicidal activity), rice; format: in vivo
[1] = Postemergence herbicidal activity (% control) against monocot weeds; format: in vivo; conditions: post-emergence, 336 h, average, read-out: Herbicidal activity (% control), postemergence, monocots; for activity at 4483.4 g/ha: 4 lb./A.
From the text: (§1) barnyardgrass (Echinochloa crusgalli) crabgrass (Digitaria spp.) nutsedge (Cyperus esculentus)
(§2) At 2 and 4 pounds per acre:
(§3) **Bermudagrass (Cynodon dactylon)
(§4) *downy brome (Bromus tectorum) foxtail (Setaria faberii)
(§5) Johnsongrass (Sorghum halepense) […]
(§6) quackgrass (Agropyron repens)
(§7) *ryegrass (Lolium perenne)
(§8) *wild oats (Avena factua)
(§9) *yellow millet (Panicum miliaceum)
(§10) The following test procedure is employed.

[2] = Preemergence herbicidal activity (% control) against monocot weeds; format: in vivo; conditions: pre-emergence, 336 h, average, read-out: Herbicidal activity (% control), preemergence, monocots; for activity at 4483.4 g/ha: 4 lb./A.
From the text: as §1, §2, §3, §4, §5, §6, §7, §8, §9, §10

cotton = assay: Crop tolerance (selective herbicidal activity), cotton; format: in vivo
Description: as §10
(§11) Following the general test procedure of Example 37, diphenyl ethers are evaluated for significant tolerance (as shown by 50% or less kill of the test crop at levels of application which give more than 50% kill of many or all of the weeds of Example 73) towards some or all of the following common agronomic crops (not all compounds tested against all crops): alfalfa, snapbeans, corn, cotton, cucumbers, peanuts, rape, rice, safflower, soybeans, tomatoes, and wheat.

[3] = Preemergence herbicidal activity (% control) against dicot weeds; conditions: pre-emergence, 336 h; for activity at 4483.4 g/ha: read-out: Herbicidal activity (% control), preemergence, dicots, 4 lb./A., average, about two weeks after application
[4] = Postemergence herbicidal activity (% control) against dicot weeds; conditions: post-emergence, 336 h; for activity at 4483.4 g/ha: read-out: Herbicidal activity (% control), postemergence, dicots, 4 lb./A., average, about two weeks after application
safflower = assay: Crop tolerance (selective herbicidal activity), safflower; format: in vivo; conditions: preemergence applications
Description: as §10, §11

peanuts = assay: Crop tolerance (selective herbicidal activity), peanuts; format: in vivo
soybeans = assay: Crop tolerance (selective herbicidal activity), soybeans; format: in vivo
snapbeans = assay: Crop tolerance (selective herbicidal activity), snapbeans; format: in vivo; conditions: preemergence applications
Description: as §10, §11

wheat = assay: Crop tolerance (selective herbicidal activity), wheat; format: in vivo
corn = assay: Crop tolerance (selective herbicidal activity), corn; format: in vivo
[5] = about two weeks after application
[6] = 10 lb./A., about two weeks after application
[7] = postemergence or layby applications

SMILES: CCOc1cc(Oc2ccc(C(F)(F)F)cc2Cl)ccc1[N+](=O)[O-] [Example 3, 2-Chloro-α,α,α-trifluoro-p-tolyl-3-ethoxy-4-nitrophenyl ether]
- Tolerance to rice (rice; postemergence applications or applications on transplanted rice): Tolerance (significant tolerance (as shown by 50% or less kill of the test crop at levels of application which give more than 50% kill of many or all of the weeds of Example 73))
- pest or weed control at 560.425 g/ha ([1]; 1/2 lb./A. (footnote +)): 96%
- activity at 4483.4 g/ha [1, 5]: 99%
- activity at 11208.5 g/ha [1, 6]: 100%
- pest or weed control at 280.212 g/ha ([2]; 1/4 lb./A.): 84%
- activity at 4483.4 g/ha [2, 5]: 89%
- activity at 11208.5 g/ha [2, 6]: 99%
- Tolerance to cotton (cotton; [7]): Tolerance (significant tolerance (as shown by 50% or less kill of the test crop at levels of application which give more than 50% kill of many or all of the weeds of Example 73))
- Tolerance to cotton (cotton; preemergence applications): Tolerance (significant tolerance (as shown by 50% or less kill of the test crop at levels of application which give more than 50% kill of many or all of the weeds of Example 73))
- pest or weed control at 280.212 g/ha ([3]; read-out: Herbicidal activity (% control), preemergence, dicots): 66%
- activity at 4483.4 g/ha [3]: 99%
- activity at 11208.5 g/ha ([3]; read-out: Herbicidal activity (% control), preemergence, dicots, 10 lb./A., average, about two weeks after application): 100%
- pest or weed control at 560.425 g/ha ([4]; read-out: Herbicidal activity (% control), postemergence, dicots): 97%
- activity at 4483.4 g/ha [4]: 100%
- activity at 11208.5 g/ha ([4]; read-out: Herbicidal activity (% control), postemergence, dicots, 10 lb./A., average, about two weeks after application): 100%
- Tolerance to safflower (safflower): Tolerance (significant tolerance (as shown by 50% or less kill of the test crop at levels of application which give more than 50% kill of many or all of the weeds of Example 73))
- Tolerance to peanuts (peanuts; preemergence applications): Tolerance (significant tolerance (as shown by 50% or less kill of the test crop at levels of application which give more than 50% kill of many or all of the weeds of Example 73))
- Tolerance to soybeans (soybeans; [7]): Tolerance (significant tolerance (as shown by 50% or less kill of the test crop at levels of application which give more than 50% kill of many or all of the weeds of Example 73))
- Tolerance to soybeans (soybeans; preemergence applications): Tolerance (significant tolerance (as shown by 50% or less kill of the test crop at levels of application which give more than 50% kill of many or all of the weeds of Example 73))

SMILES: CC(C)Oc1cc(Oc2ccc(C(F)(F)F)cc2Cl)ccc1[N+](=O)[O-] [Example 4]
- Tolerance to rice (rice; preemergence applications): Tolerance (significant tolerance (as shown by 50% or less kill of the test crop at levels of application which give more than 50% kill of many or all of the weeds of Example 73))
- activity at 4483.4 g/ha [1, 5]: 80%
- activity at 4483.4 g/ha [2, 5]: 98%
- Tolerance to snapbeans (snapbeans): Tolerance (significant tolerance (as shown by 50% or less kill of the test crop at levels of application which give more than 50% kill of many or all of the weeds of Example 73))
- Tolerance to cotton (cotton; preemergence applications): Tolerance (significant tolerance (as shown by 50% or less kill of the test crop at levels of application which give more than 50% kill of many or all of the weeds of Example 73))
- activity at 4483.4 g/ha [3]: 100%
- Tolerance to wheat (wheat; postemergence applications): Tolerance (significant tolerance (as shown by 50% or less kill of the test crop at levels of application which give more than 50% kill of many or all of the weeds of Example 73))
- Tolerance to wheat (wheat; preemergence applications): Tolerance (significant tolerance (as shown by 50% or less kill of the test crop at levels of application which give more than 50% kill of many or all of the weeds of Example 73))
- activity at 4483.4 g/ha [4]: 100%
- Tolerance to peanuts (peanuts; postemergence applications): Tolerance (significant tolerance (as shown by 50% or less kill of the test crop at levels of application which give more than 50% kill of many or all of the weeds of Example 73))
- Tolerance to soybeans (soybeans; preemergence applications): Tolerance (significant tolerance (as shown by 50% or less kill of the test crop at levels of application which give more than 50% kill of many or all of the weeds of Example 73))
- Tolerance to corn (corn; postemergence applications): Tolerance (significant tolerance (as shown by 50% or less kill of the test crop at levels of application which give more than 50% kill of many or all of the weeds of Example 73))
- Tolerance to corn (corn; preemergence applications): Tolerance (significant tolerance (as shown by 50% or less kill of the test crop at levels of application which give more than 50% kill of many or all of the weeds of Example 73))
